The values below come from patent publication US20240262815A1, “HETEROARYL DERIVATIVE, METHOD FOR PREPARING SAME, AND PHARMACEUTICAL COMPOSITION COMPRISING SAME AS ACTIVE INGREDIENT” (VORONOI INC., priority 2021, published 2024).

For the test, the system named is SK-BR-3 cancer cells. Description: Inhibitory activity against proliferation of SK-BR-3 cancer cells (CellTiter-Glo). The test is classed as cell-based. The conditions noted are these: Homo sapiens, SK-BR-3, 120 h, ErbB2-overexpressing SK-BR-3 cells, 120 hours after treatment. How it is done: To evaluate the inhibitory activity of a compound according to the present invention against the proliferation of ErbB2-overexpressing cancer cells, the following experiment were performed.
10% FBS-added McCOY'S 5A was used for SK-BR-3 cancer cells. 20% FBS-added RPMI-1640 was used for BT-474 cancer cells. Transduced Ba/F3 cells were cultured in a RPMI-1640 medium to which 1 μg/ml puromycin (Invitrogen) was added.
48 hours before compound treatment, each type of the SK-BR-3 and BT-474 cells were seeded at 5,000 cells/well in a white clear bottom 96 well plate (Corning). The compound was diluted in dimethyl sulfoxide (SK-BR-3: 3-fold dilution, a total of 12 concentrations, BT-474: […], a total of 12 concentrations) and injected at 1 μl to have the final concentration of 0.2 nM to 5 μM. As for measurement of live cells, 120 hours after treatment with the compound, a CellTiter-Glo luminescent cell-viability reagent (Promega) was used to store the cells at room temperature for 10 minutes, followed by measurement of luminescence using a reader (SynergyNeo, Biotek). Each test was repeated three times.
The result values were calculated as a cell growth rate (%) compared to the control group. A graph was plotted using the GraphPad Prism version 8.3.0 program, and GI50 values were calculated.
For the compound `C=CC(=O)Nc1cc(Nc2cc(N3OCCC3c3cccc(-c4cc(F)cc(F)c4)c3)ncn2)c(OC)cc1N1CCC(N2CCN(C3CC3)CC2)CC1` (stereo not drawn) [Example 249, N-(2-(4-(4-cyclo-propylpiperazin-1-yl)piperidin-1-yl)-5-((6-(3-(3′,5′-difluoro-[1,1′-biphenyl]-3-yl)-isoxazolidin-2-yl)-pyrimidin-4-yl)-amino)-4-methoxy-phenyl)acrylamide], the GI50 lay in the range of 50 to 500 nM.
Next, `C=CC(=O)Nc1cc(Nc2cc(N3OCCC3c3cccc(-c4cccc(C#N)c4)c3)ncn2)c(OC)cc1N1CCC(N2CCN(C3CC3)CC2)CC1` (stereo not drawn) [Example 250, N-(5-((6-(3-(3′-cyano-[1,1′-biphen-yl]-3-yl)isoxazol-idin-2-yl)pyrim-idin-4-yl)amino)-2-(4-(4-cycloprop-ylpiperazin-1-yl)-piperidin-1-yl)-4-methoxyphenyl)-acrylamide]: < 50 nM; `C=CC(=O)Nc1cc(Nc2cc(N3OCC[C@H]3c3cccc(-c4cccc(F)c4)c3F)ncn2)c(OC)cc1N1CCC(N2CCN(C3CC3)CC2)CC1` [Example 251, (S)-N-(2-(4-(4-cyclopropylpiper-azin-1-yl)piper-idin-1-yl)-5-((6-(3-(2,3′-difluoro-[1,1′-biphenyl]-3-yl)-isoxazolidin-2-yl)-pyrimidin-4-yl)-amino)-4-methoxy-phenyl)acrylamide]: 500 to 5000 nM.
The figure for `C=CC(=O)Nc1cc(Nc2cc(N3OCC[C@@H]3c3cccc(-c4cccc(F)c4)c3F)ncn2)c(OC)cc1N1CCC(N2CCN(C3CC3)CC2)CC1` [Example 252, (R)-N-(2-(4-(4-cyclopropylpiper-azin-1-yl)piper-idin-1-yl)-5-((6-(3-(2,3′-difluoro-[1,1′-biphenyl]-3-yl)isoxazolidin-2-yl)pyrimidin-4-yl)-amino)-4-methoxy-phenyl)acrylamide] is < 50 nM.
Consider `C=CC(=O)Nc1cc(Nc2cc(N3OCC[C@@H]3c3cccc(C(=O)NC4CCCCC4)c3)ncn2)c(OC)cc1N1CCC(N2CCN(C3CC3)CC2)CC1` [Example 254, (R)-3-(2-(6-((5-acrylamido-4-(4-(4-cyclopropyl-piperazin-1-yl)-piperidin-1-yl)-2-methoxyphenyl)-amino)pyrimidin-4-yl)isoxazolidin-3-yl)-N-cyclohex-ylbenzamide], for which the concentration for 50% growth inhibition (GI50) was < 50 nM.
The figure for `COc1cc(F)c(NC(=O)/C=C/CN(C)C)cc1Nc1cc(N2OCC[C@@H]2c2ccc(F)c(OCc3cccc(F)c3)c2)ncn1` [Example 255, (R,E)-4-(dimethyl-amino)-N-(2-fluoro-5-((6-(3-(4-fluoro-3-((3-fluorobenzyl)oxy)-phenyl)isoxazol-idin-2-yl)pyrim-idin-4-yl)amino)-4-methoxyphen-yl)but-2-enamide] is 50 to 500 nM; for `C=CC(=O)Nc1cc(Nc2cc(N3OCC[C@@H]3c3ccc(C)c(OCc4cccc(F)c4)c3)ncn2)c(OC)cc1N1CCN(C)CC1` [Example 256, (R)-N-(5-((6-(3-(3-((3-fluorobenz-yl)oxy)-4-methyl-phenyl)isoxazol-idin-2-yl)pyrim-idin-4-yl)amino)-4-methoxy-2-(4-methylpiperazin-1-yl)phenyl)-acrylamide] it is 50 to 500 nM.
The figure for `C=CC(=O)Nc1cc(Nc2cc(N3OCC[C@@H]3c3ccc(C)c(OCc4cccc(F)c4)c3)ncn2)c(OC)cc1N(C)CCN(C)C` [Example 257, (R)-N-(2-((2-(dimethylamino)-ethyl)(methyl)-amino)-5-((6-(3-(3-((3-fluorobenz-yl)oxy)-4-methyl-phenyl)isoxazol-idin-2-yl)pyrim-idin-4-yl)amino)-4-methoxyphen-yl)acrylamide] is < 50 nM; for `C=CC(=O)Nc1cc(Nc2cc(N3OCC[C@@H]3c3ccc(C)c(OCc4cccc(F)c4)c3)ncn2)c(OC)cc1F` [Example 258, (R)-N-(2-fluoro-5-((6-(3-(3-((3-fluorobenzyl)oxy)-4-methylphenyl)-isoxazolidin-2-yl)-pyrimidin-4-yl)-amino)-4-methoxy-phenyl)acrylamide] it is 500 to 5000 nM; for `C=CC(=O)Nc1cc(Nc2cc(N3OCC[C@@H]3c3ccc(F)c(Oc4cccc(C(F)(F)F)c4)c3)ncn2)c(OC)cc1N1CCN(C)CC1` [Example 259, (R)-N-(5-((6-(3-(4-fluoro-3-(3-(trifluoromethyl)-phenoxy)phenyl)-isoxazolidin-2-yl)-pyrimidin-4-yl)-amino)-4-meth-oxy-2-(4-methyl-piperazin-1-yl)-phenyl)acrylamide] it is 50 to 500 nM.
With `C=CC(=O)Nc1cc(Nc2cc(N3OCC[C@@H]3c3ccc(F)c(Oc4cccc(C(F)(F)F)c4)c3)ncn2)c(OC)cc1N(C)CCN(C)C` [Example 260, (R)-N-(2-((2-(dimethylamino)-ethyl)(methyl)-amino)-5-((6-(3-(4-fluoro-3-(3-(trifluoromethyl)-phenoxy)phenyl)-isoxazolidin-2-yl)-pyrimidin-4-yl)-amino)-4-methoxy-phenyl)acrylamide], the 50% growth inhibitory concentration (GI50) fell in the range of 50 to 500 nM.
The figure for `C=CC(=O)Nc1cc(Nc2cc(N3OCCC3c3cccc(-c4cccc(F)c4)c3)ncn2)c(OC)cc1N(C)CCN(C)C` (stereo not drawn) [Example 261, N-(2-((2-(dimeth-ylamino)ethyl)-(methyl)amino)-5-((6-(3-(3′-fluoro-[1,1′-biphenyl]-3-yl)isoxazolidin-2-yl)pyrimidin-4-yl)-amino)-4-methoxy-phenyl)acrylamide] is < 50 nM; for `C=CC(=O)Nc1cc(Nc2cc(N3OCC[C@@H]3c3cccc(-c4cnc5ccnn5c4)c3)ncn2)c(OC)cc1N1CCN(C)CC1` [Example 262, (R)-N-(4-methoxy-2-(4-methylpiper-azin-1-yl)-5-((6-(3-(3-(pyrazolo[1,5-a]pyrimidin-6-yl)-phenyl)isoxazol-idin-2-yl)pyrim-idin-4-yl)amino)-phenyl)acrylamide] it is < 50 nM; for `C=CC(=O)Nc1cc(Nc2cc(N3OCC[C@@H]3c3cccc(-c4cnc5ccnn5c4)c3)ncn2)c(OC)cc1N(C)CCN(C)C` [Example 263, (R)-N-(2-((2-(dimethylamino)-ethyl)(methyl)-amino)-4-methoxy-5-((6-(3-(3-(pyr-azolo[1,5-a]pyrim-idin-6-yl)phenyl)-isoxazolidin-2-yl)-pyrimidin-4-yl)-amino)phenyl)-acrylamide] it is < 50 nM.
Regarding `C=CC(=O)Nc1cc(Nc2cc(N3OCC[C@@H]3c3cccc(-c4cnc5ccnn5c4)c3)ncn2)c(OC)cc1N1CCOCC1` [Example 264, (R)-N-(4-methoxy-2-morpholino-5-((6-(3-(3-(pyraz-olo[1,5-a]pyrim-idin-6-yl)phenyl)-isoxazolidin-2-yl)-pyrimidin-4-yl)-amino)phenyl)-acrylamide], the GI50 was < 50 nM.
On to `C=CC(=O)Nc1cc(Nc2cc(N3OCC[C@@H]3c3cccc(-c4ccc5ncnn5c4)c3)ncn2)c(OC)cc1N1CCN(C)CC1` [Example 266, (R)-N-(5-((6-(3-(3-([1,2,4]triazolo-[1,5-a]pyridin-6-yl)phenyl)isoxazol-idin-2-yl)pyrim-idin-4-yl)amino)-4-methoxy-2-(4-methylpiperazin-1-yl)phenyl)acryl-amide], for which the 50% growth inhibitory concentration (GI50) is < 50 nM.
The figure for `C=CC(=O)Nc1cc(Nc2cc(N3OCCC3c3cccc(-c4cc(F)cc(F)c4)c3)ncn2)c(OC)cc1N1CCN(C)CC1` (stereo not drawn) [Example 267, N-(5-((6-(3-(3′,5′-difluoro-[1,1′-biphenyl]-3-yl)-isoxazolidin-2-yl)-pyrimidin-4-yl)-amino)-4-methoxy-2-(4-methylpiper-azin-1-yl)phenyl)-acrylamide] is < 50 nM; for `C=CC(=O)Nc1cc(Nc2cc(N3OCC[C@@H]3c3cccc(-c4ccn5ncnc5c4)c3)ncn2)c(OC)cc1N1CCN(C)CC1` [Example 268, (R)-N-(5-((6-(3-(3-([1,2,4]triazolo-[1,5-a]pyridin-7-yl)phenyl)isoxazol-idin-2-yl)pyrim-idin-4-yl)amino)-4-methoxy-2-(4-methylpiperazin-1-yl)phenyl)-acrylamide] it is < 50 nM; for `C=CC(=O)Nc1cc(Nc2cc(N3OCC[C@@H]3c3cccc(-c4cc(F)cc(F)c4)c3)ncn2)c(OC)cc1N1CCC(N2CCN(C3CC3)CC2)CC1` [Example 269, (R)-N-(2-(4-(4-cyclopropylpiper-azin-1-yl)piper-idin-1-yl)-5-((6-(3-(3′,5′-difluoro-[1,1′-biphenyl]-3-yl)isoxazolidin-2-yl)pyrimidin-4-yl)-amino)-4-methoxy-phenyl)acrylamide] it is < 50 nM.
As for `C=CC(=O)Nc1cc(Nc2cc(N3OCC[C@@H]3c3cccc(-c4cc(F)cc(F)c4)c3)ncn2)c(OC)cc1N1CCO[C@H](C)C1` [Example 270, N-(5-((6-((R)-3-(3′,5′-difluoro-[1,1′-biphenyl]-3-yl)-isoxazolidin-2-yl)-pyrimidin-4-yl)-amino)-4-methoxy-2-((R)-2-methyl-morpholino)phen-yl)acrylamide], the concentration for 50% growth inhibition (GI50) was < 50 nM.
The figure for `C=CCN1CCN(c2cc(OC)c(Nc3cc(N4OCC[C@@H]4c4cccc(-c5cc(F)cc(F)c5)c4)ncn3)cc2NC(=O)C=C)CC1` [Example 271, (R)-N-(2-(4-allyl-piperazin-1-yl)-5-((6-(3-(3′,5′-difluoro-[1,1′-biphen-yl]-3-yl)-isoxazolidin-2-yl)-pyrimidin-4-yl)-amino)-4-methoxy-phenyl)acrylamide] is < 50 nM.
